In the supplement of paper PMC10307832:

These cell lines were tested with CC(C)C[C@H](NC(=O)[C@H](CCc1ccccc1)NC(=O)CN1CCOCC1)C(=O)N[C@@H](Cc1ccccc1)C(=O)N[C@@H](CC(C)C)C(=O)[C@@]1(C)CO1 [Carfilzomib] (assay: relative viability (nuclei count vs DMSO), 5 days (fraction); higher = more cells survive). Details: 0.003162 µM.
Summary of the method: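 MetaXpress counted nuclei in 4× images of lung cancer cell lines that had been fixed, permeabilised and Hoechst-stained in one step. Before that, cells in 1536-well plates were kept overnight at 37 °C, pinned with five √10-spaced library-drug doses on vehicle-anchored plates, and cultured 5 days without medium change. Viability takes treated-well nuclei over vehicle-well nuclei and uses the median across plates. Plates were accepted only at control CV below 25% and at least one doubling.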

Row | Cell Line | relative viability
1 | HCC-827 | 1.05
2 | HOP-62 | 1.09
3 | IA-LM | 0.879
4 | LC-2-ad | 1.16
5 | LCLC-97TM1 | 1.07
6 | LCLC-103H | 0.974
7 | LK-2 | 1.31
8 | LOU-NH91 | 1.08
9 | LU99A | 1.06
10 | LXF-289 | 1.04
11 | NCI-H23 | 1.14
12 | NCI-H322M | 1.07
13 | NCI-H358 | 1.03
14 | NCI-H441 | 1.19
15 | NCI-H460 | 1.01
16 | NCI-H520 | 1.06
17 | NCI-H522 | 1.11
18 | NCI-H596 | 0.949
19 | NCI-H647 | 1.06
20 | NCI-H650 | 1.03
21 | NCI-H661 | 1.05
22 | NCI-H1299 | 1.02
23 | NCI-H1563 | 1.08
24 | NCI-H1623 | 1.12
25 | NCI-H1703 | 1.22

Same assay, conditions: 0.01 µM

Row | Cell Line | relative viability
26 | 201T | 1.01
27 | A549 | 0.954
28 | A-427 | 0.957
29 | ABC-1 | 0.39
30 | BEN | 0.944
31 | CAL-12T | 1.1
32 | COR-L23 | 0.846
33 | COR-L 105 | 0.962
34 | Calu-6 | 0.92
35 | ChaGo-K-1 | 1.01
36 | EBC-1 | 0.642
37 | EKVX | 1.17
38 | EMC-BAC-2 | 1.04
39 | EPLC-272H | 0.834
40 | H3255 | 1.11
41 | HARA | 1.2
42 | HCC-15 | 1.07
43 | HCC-44 | 1.05
44 | HCC-78 | 1.07
45 | HCC-366 | 1.01
46 | HCC-827 | 1.09
47 | HOP-62 | 0.92
48 | IA-LM | 0.94

Row | Cell Line | relative viability
49 | LC-2-ad | 1.03
50 | LCLC-97TM1 | 0.999
51 | LCLC-103H | 0.998
52 | LK-2 | 0.96
53 | LOU-NH91 | 0.745
54 | LU99A | 0.982
55 | LXF-289 | 1.02
56 | NCI-H23 | 0.856
57 | NCI-H322M | 1.04
58 | NCI-H358 | 0.953
59 | NCI-H441 | 0.432
60 | NCI-H460 | 1
61 | NCI-H520 | 0.782
62 | NCI-H522 | 1.01
63 | NCI-H596 | 0.95
64 | NCI-H647 | 0.978
65 | NCI-H650 | 0.886
66 | NCI-H661 | 1.02
67 | NCI-H1299 | 1.02
68 | NCI-H1563 | 1.03
69 | NCI-H1623 | 1.04
70 | NCI-H1703 | 0.439

Same assay, conditions: 0.03162 µM

Row | Cell Line | relative viability
71 | 201T | 1.04
72 | A549 | 0.525
73 | A-427 | 0.479
74 | ABC-1 | 0.221
75 | BEN | 0.843
76 | CAL-12T | 0.736
77 | COR-L23 | 0.0978
78 | COR-L 105 | 0.318
79 | Calu-6 | 0.306
80 | ChaGo-K-1 | 0.864
81 | EBC-1 | 0.11
82 | EKVX | 0.76
83 | EMC-BAC-2 | 0.972
84 | EPLC-272H | 0.242
85 | H3255 | 0.718
86 | HARA | 0.427
87 | HCC-15 | 0.709
88 | HCC-44 | 0.819
89 | HCC-78 | 0.662
90 | HCC-366 | 1.05
91 | HCC-827 | 0.97
92 | HOP-62 | 0.251
93 | IA-LM | 0.107

Row | Cell Line | relative viability
94 | LC-2-ad | 0.473
95 | LCLC-97TM1 | 0.368
96 | LCLC-103H | 0.984
97 | LK-2 | 0.205
98 | LOU-NH91 | 0.314
99 | LU99A | 0.893
100 | LXF-289 | 0.371
101 | NCI-H23 | 0.172
102 | NCI-H322M | 0.961
103 | NCI-H358 | 0.154
104 | NCI-H441 | 0.151
105 | NCI-H460 | 0.739
106 | NCI-H520 | 0.187
107 | NCI-H522 | 0.734
108 | NCI-H596 | 0.697
109 | NCI-H647 | 0.0791
110 | NCI-H650 | 0.751
111 | NCI-H661 | 0.995
112 | NCI-H1299 | 0.577
113 | NCI-H1563 | 0.934
114 | NCI-H1623 | 0.885
115 | NCI-H1703 | 0.132

Same assay, conditions: 0.1 µM

Row | Cell Line | relative viability
116 | 201T | 0.849
117 | A549 | 0.043
118 | A-427 | 0.134
119 | ABC-1 | 0.291
120 | BEN | 0.433
121 | CAL-12T | 0.138
122 | COR-L23 | 0.0691
123 | COR-L 105 | 0.26
124 | Calu-6 | 0.11
125 | ChaGo-K-1 | 0.304
126 | EBC-1 | 0.103
127 | EKVX | 0.369
128 | EMC-BAC-2 | 0.432
129 | EPLC-272H | 0.0648
130 | H3255 | 0.373
131 | HARA | 0.126
132 | HCC-15 | 0.177
133 | HCC-44 | 0.317
134 | HCC-78 | 0.267
135 | HCC-366 | 0.0704
136 | HCC-827 | 0.647
137 | HOP-62 | 0.106
138 | IA-LM | 0.0275

Row | Cell Line | relative viability
139 | LC-2-ad | 0.226
140 | LCLC-97TM1 | 0.0609
141 | LCLC-103H | 0.459
142 | LK-2 | 0.201
143 | LOU-NH91 | 0.309
144 | LU99A | 0.433
145 | LXF-289 | 0.104
146 | NCI-H23 | 0.161
147 | NCI-H322M | 0.376
148 | NCI-H358 | 0.133
149 | NCI-H441 | 0.118
150 | NCI-H460 | 0.0357
151 | NCI-H520 | 0.199
152 | NCI-H522 | 0.375
153 | NCI-H596 | 0.222
154 | NCI-H647 | 0.038
155 | NCI-H650 | 0.196
156 | NCI-H661 | 0.535
157 | NCI-H1299 | 0.158
158 | NCI-H1563 | 0.613
159 | NCI-H1623 | 0.33
160 | NCI-H1703 | 0.128
